Measured values reported in US20260200920A1, “SUBSTITUTED AMINOPYRIDINE COMPOUNDS FOR USE AS AKT1 INHIBITORS” (Atavistik Bio, Inc., priority 2023, published 2026).

Key:
[1] = target: T1, human recombinant kinase full-length wildtype AKT1 (Homo sapiens, UniProt P31749); test: AKT1 kinase assay (wildtype, TR-FRET, Lance); assay type: biochemical; details: 0.6 nM wildtype AKT1, 50 nM Ulight-CREBtide, either 50 μM ATP or 2 mM ATP, 60 min at RT
T1 construct: Purified human recombinant kinase full-length wildtype AKT1 was expressed in insect cells; made in house; host or cells: insect cells
T1 sequence (P31749 whole entry): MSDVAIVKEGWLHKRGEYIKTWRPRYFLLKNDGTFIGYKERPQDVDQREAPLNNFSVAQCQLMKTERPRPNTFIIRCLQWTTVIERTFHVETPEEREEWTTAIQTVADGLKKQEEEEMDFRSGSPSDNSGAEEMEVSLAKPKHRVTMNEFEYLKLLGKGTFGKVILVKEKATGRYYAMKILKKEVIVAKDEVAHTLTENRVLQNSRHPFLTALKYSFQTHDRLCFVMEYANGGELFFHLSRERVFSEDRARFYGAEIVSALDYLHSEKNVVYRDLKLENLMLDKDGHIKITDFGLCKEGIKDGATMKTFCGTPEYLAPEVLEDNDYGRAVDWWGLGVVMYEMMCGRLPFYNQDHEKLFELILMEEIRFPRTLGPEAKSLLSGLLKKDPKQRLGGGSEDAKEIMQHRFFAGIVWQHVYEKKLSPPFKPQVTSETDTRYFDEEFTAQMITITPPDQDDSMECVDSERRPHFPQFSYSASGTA
Outline: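 TR-FRET 665/620 ratio quantified phospho-CREBtide formed by PDPK1-activated full-length human AKT1 (0.6 nM, insect-cell-derived) over 60 min at RT with 50 nM ULight-CREBtide and either 50 μM or 2 mM ATP. Compounds were preincubated 15 min with enzyme; IC50 came from 4-parameter fits of 10-point duplicates.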

[2] = target: T2, human recombinant kinase full-length AKT1 E17K (Homo sapiens, UniProt P31749, E17K); test: AKT1 E17K kinase assay (TR-FRET, Lance); assay type: biochemical; details: 0.6 nM AKT1 E17K, 50 nM Ulight-CREBtide, either 50 μM ATP or 2 mM ATP, 60 min at RT
T2 construct: Purified human recombinant kinase full-length AKT1 E17K was expressed in insect cells; made in house; host or cells: insect cells
T2 sequence (P31749 whole entry E17K): as the sequence (P31749 whole entry) above, with E17K counted along it
Outline: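 IC50 came from a 10-point, 4-parameter fit of the 665/620 TR-FRET ratio read with Eu-anti-phospho-CREB (Ser133). Reaction at RT for 60 min after 15 min compound preincubation, using 0.6 nM PDPK1-activated full-length AKT1 E17K (insect-cell), 50 nM Ulight-CREBtide, ATP at 50 μM or 2 mM, HEPES pH 7.5, 1% DMSO.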

Row | SMILES | IC50 [1] | IC50 [2]
1 | CC1(C)C[C@@H](CN2CC(c3ccc(-n4c(-c5cccnc5N)nc5ccc(-c6ccccc6)nc54)cc3)C2)CC[C@H]1C(=O)O [Compound I-69, (1R,4S)-4-((3-(4-(2-(2-aminopyridin-3-yl)-5-phenyl-3H-imidazo[4,5-b]pyridin-3-yl)phenyl)azetidin-1-yl)methyl)-2,2-dimethylcyclohexane-1-carboxylic acid] | < 20000 nM | < 500 nM
2 | CC1(C)C[C@H](CN2CC(c3ccc(-n4c(-c5cccnc5N)nc5ccc(-c6ccccc6)nc54)cc3)C2)CC[C@@H]1C(=O)O [Compound I-70, (1S,4R)-4-((3-(4-(2-(2-aminopyridin-3-yl)-5-phenyl-3H-imidazo[4,5-b]pyridin-3-yl)phenyl)azetidin-1-yl)methyl)-2,2-dimethylcyclohexane-1-carboxylic acid] | < 20000 nM | < 500 nM
3 | CC1(C)C[C@H](CN2CC(c3ccc(-n4c(-c5cccnc5N)nc5ccc(-c6ccccc6)nc54)cc3)C2)CC[C@H]1C(=O)O [Compound I-71, (1R,4R)-4-((3-(4-(2-(2-aminopyridin-3-yl)-5-phenyl-3H-imidazo[4,5-b]pyridin-3-yl)phenyl)azetidin-1-yl)methyl)-2,2-dimethylcyclohexane-1-carboxylic acid] | < 20000 nM | < 500 nM
4 | Nc1ncccc1-c1nc2ccc(-n3cccn3)cc2n1-c1ccc(C2CN(C[C@H]3CC[C@H](C(=O)O)CC3)C2)cc1 [Compound I-72, (1r,4r)-4-((3-(4-(2-(2-aminopyridin-3-yl)-6-(1H-pyrazol-1-yl)-1H-benzo[d]imidazol-1-yl)phenyl)azetidin-1-yl)methyl)cyclohexane-1-carboxylic acid] | < 20000 nM | ≥ 2000 nM
5 | Nc1ncccc1-c1nc2cc(-c3cccnc3)cnc2n1-c1ccc(C2CN(C[C@H]3CC[C@H](C(=O)O)CC3)C2)cc1 [Compound I-73, (1r,4r)-4-((3-(4-(2-(2-aminopyridin-3-yl)-6-(pyridin-3-yl)-3H-imidazo[4,5-b]pyridin-3-yl)phenyl)azetidin-1-yl)methyl)cyclohexane-1-carboxylic acid] | < 20000 nM | ≥ 2000 nM
6 | CC(C)[C@@H]([C@H]1CC[C@H](C(=O)O)CC1)N1CC(c2ccc(-n3c(-c4cccnc4N)nc4ccc(-c5ccccc5)nc43)cc2)C1 [Compound I-74, (1S,4r)-4-((S)-1-(3-(4-(2-(2-aminopyridin-3-yl)-5-phenyl-3H-imidazo[4,5-b]pyridin-3-yl)phenyl)azetidin-1-yl)-2-methylpropyl)cyclohexane-1-carboxylic acid] | < 20000 nM | ≥ 2000 nM
7 | C[C@]1(C(=O)O)CC[C@@H](CN2CC(c3ccc(-n4c(-c5cccnc5N)nc5ccc(-c6ccccc6)nc54)cc3)C2)CC1 [Compound I-75, (1s,4s)-4-((3-(4-(2-(2-aminopyridin-3-yl)-5-phenyl-311-imidazo[4,5-b]pyridin-3-yl)phenyl)azetidin-1-yl)methyl)-1-methylcyclohexane-1-carboxylic acid] | < 20000 nM | < 500 nM
8 | Nc1ncccc1-c1nc2ccc(-c3ccccc3)nc2n1-c1ccc(C2CCN(CC3CCC(C(=O)O)CC3)CC2)cc1 (stereo not drawn) [Compound I-76, 4-((4-(4-(2-(2-aminopyridin-3-yl)-5-phenyl-3H-imidazo[4,5-b]pyridin-3-yl)phenyl)piperidin-1-yl)methyl)cyclohexane-1-carboxylic acid] | < 20000 nM | 500 to 2000 nM
9 | Nc1ncccc1-c1nc2ccc(-c3ccccc3)nc2n1-c1ccc(C2CCCN(CC3CCC(C(=O)O)CC3)C2)cc1 (stereo not drawn) [Compound I-77, 4-((3-(4-(2-(2-aminopyridin-3-yl)-5-phenyl-3H-imidazo[4,5-b]pyridin-3-yl)phenyl)piperidin-1-yl)methyl)cyclohexane-1-carboxylic acid] | < 20000 nM | ≥ 2000 nM
10 | Nc1ncccc1-c1nc2ccc(-c3ccccc3)nc2n1-c1ccc(C2CCN(CC3CCC(C(=O)O)CC3)C2)cc1 (stereo not drawn) [Compound I-78, 4-((3-(4-(2-(2-aminopyridin-3-yl)-5-phenyl-3H-imidazo[4,5-b]pyridin-3-yl)phenyl)pyrrolidin-1-yl)methyl)cyclohexane-1-carboxylic acid] | < 20000 nM | 500 to 2000 nM
11 | CC(c1ccc(-n2c(-c3cccnc3N)nc3ccc(-c4ccccc4)nc32)cc1)N1CCC(C(=O)O)CC1 (stereo not drawn) [Compound I-79, 1-(1-(4-(2-(2-aminopyridin-3-yl)-5-phenyl-3H-imidazo[4,5-b]pyridin-3-yl)phenyl)ethyl)piperidine-4-carboxylic acid] | < 20000 nM | ≥ 2000 nM
12 | Nc1ncccc1-c1nc2ccc(-c3ccccc3)nc2n1-c1ccc(C(=O)N2CC3(CC(C(=O)O)C3)C2)cc1 [Compound I-80, 2-(4-(2-(2-aminopyridin-3-yl)-5-phenyl-3H-imidazo[4,5-b]pyridin-3-yl)benzoyl)-2-azaspiro[3.3]heptane-6-carboxylic acid] | < 20000 nM | ≥ 2000 nM
13 | CC(NC1CCC(C(=O)O)C1)c1ccc(-n2c(-c3cccnc3N)nc3ccc(-c4ccccc4)nc32)cc1F (stereo not drawn) [Compound I-81, 3-((1-(4-(2-(2-aminopyridin-3-yl)-5-phenyl-3H-imidazo[4,5-b]pyridin-3-yl)-2-fluorophenyl)ethyl)amino)cyclopentane-1-carboxylic acid] | < 20000 nM | ≥ 2000 nM
14 | CC(C)(C(=O)O)C1CCN(C(=O)c2ccc(-n3c(-c4cccnc4N)nc4ccc(-c5ccccc5)nc43)cc2)C1 (stereo not drawn) [Compound I-82, 2-(1-(4-(2-(2-aminopyridin-3-yl)-5-phenyl-3H-imidazo[4,5-b]pyridin-3-yl)benzoyl)pyrrolidin-3-yl)-2-methylpropanoic acid] | < 20000 nM | ≥ 2000 nM
15 | CC(c1ccc(-n2c(-c3cccnc3N)nc3ccc(-c4ccccc4)nc32)cc1)N1CCCC(C(=O)O)C1 (stereo not drawn) [Compound I-83, 1-(1-(4-(2-(2-aminopyridin-3-yl)-5-phenyl-3H-imidazo[4,5-b]pyridin-3-yl)phenyl)ethyl)piperidine-3-carboxylic acid] | < 20000 nM | ≥ 2000 nM
16 | CC(c1ccc(-n2c(-c3cccnc3N)nc3ccc(-c4ccccc4)nc32)cc1)N1CCC(C(=O)O)C1 (stereo not drawn) [Compound I-84, 1-(1-(4-(2-(2-aminopyridin-3-yl)-5-phenyl-3H-imidazo[4,5-b]pyridin-3-yl)phenyl)ethyl)pyrrolidine-3-carboxylic acid] | < 20000 nM | ≥ 2000 nM
17 | CC1(C)CN(Cc2ccc(-n3c(-c4cccnc4N)nc4ccc(-c5ccccc5)nc43)cc2)CCC1C(=O)O (stereo not drawn) [Compound I-85, 1-[[4-[2-(2-amino-3-pyridyl)-5-phenyl-imidazo[4,5-b]pyridin-3-yl]phenyl]methyl]-3,3-dimethyl-piperidine-4-carboxylic acid] | < 20000 nM | ≥ 2000 nM
18 | CC1(C(=O)O)CCN(Cc2ccc(-n3c(-c4cccnc4N)nc4ccc(-c5ccccc5)nc43)cc2)CC1 [Compound I-86, 1-[[4-[2-(2-amino-3-pyridyl)-5-phenyl-imidazo[4,5-b]pyridin-3-yl]phenyl]methyl]-4-methyl-piperidine-4-carboxylic acid] | < 20000 nM | 500 to 2000 nM
19 | CC(C)(N[C@@H]1CC[C@@H](C(=O)O)C1)c1ccc(-n2c(-c3cccnc3N)nc3ccc(-c4ccccc4)nc32)cc1 [Compound I-87, (1R,3R)-3-((2-(4-(2-(2-aminopyridin-3-yl)-5-phenyl-3H-imidazo[4,5-b]pyridin-3-yl)phenyl)propan-2-yl)amino)cyclopentane-1-carboxylic acid] | < 20000 nM | ≥ 2000 nM
20 | CC(C)(N[C@@H]1CC[C@H](C(=O)O)C1)c1ccc(-n2c(-c3cccnc3N)nc3ccc(-c4ccccc4)nc32)cc1 [Compound I-88, (1S,3R)-3-((2-(4-(2-(2-aminopyridin-3-yl)-5-phenyl-3H-imidazo[4,5-b]pyridin-3-yl)phenyl)propan-2-yl)amino)cyclopentane-1-carboxylic acid] | < 20000 nM | ≥ 2000 nM
21 | CC(C)(NC1CCC(C(=O)O)CC1)c1ccc(-n2c(-c3cccnc3N)nc3ccc(-c4ccccc4)nc32)cc1 (stereo not drawn) [Compound I-89, (1r,4r)-4-((2-(4-(2-(2-aminopyridin-3-yl)-5-phenyl-3H-imidazo[4,5-b]pyridin-3-yl)phenyl)propan-2-yl)amino)cyclohexane-1-carboxylic acid] | < 20000 nM | ≥ 2000 nM
22 | Nc1ncccc1-c1nc2ccc(-c3ccccc3)nc2n1-c1ccc(CN[C@H]2CC[C@H](C(=O)O)CC2)cc1 [Compound I-90, (1r,4r)-4-((4-(2-(2-aminopyridin-3-yl)-5-phenyl-3H-imidazo[4,5-b]pyridin-3-yl)benzyl)amino)cyclohexane-1-carboxylic acid] | < 20000 nM | < 500 nM
23 | Nc1ncccc1-c1nc2ccc(-c3ccccc3)nc2n1-c1ccc(CN[C@H]2CC[C@@H](C(=O)O)CC2)cc1 [Compound I-91, (1s,4s)-4-((4-(2-(2-aminopyridin-3-yl)-5-phenyl-3H-imidazo[4,5-b]pyridin-3-yl)benzyl)amino)cyclohexane-1-carboxylic acid] | < 20000 nM | < 500 nM
24 | CC(C)(C(=O)O)C1CCN(Cc2ccc(-n3c(-c4cccnc4N)nc4ccc(-c5ccccc5)nc43)cc2)CC1 [Compound I-92, 2-(1-(4-(2-(2-aminopyridin-3-yl)-5-phenyl-3H-imidazo[4,5-b]pyridin-3-yl)benzyl)piperidin-4-yl)-2-methylpropanoic acid] | < 20000 nM | ≥ 2000 nM
